Values joined by “and” are separate entries in the source; they are usually repeats but may differ in a detail not shown here. Equal entries are not always repeated.
What was measured:
[1] = test system: LNCaP cells; assay: Internalization into LNCaP cells, relative cellular uptake to ([^125I]I-BA)KuE; assay type: cell-based; settings: c = 1.0 nM ^177Lu-labeled inhibitor, 37° C., 60 min, corrected for non-specific binding (10 μM 2-PMPA), mean ± SD (n = 3)
Description: PSMA-positive LNCAP cells (300265; Cell Lines Service GmbH) were cultivated in Dulbecco modified Eagle medium/Nutrition Mixture F-12 (1/1) (DMEM-F12, Biochrom) supplemented with fetal calf serum (FCS) (10%, Biochrom) and kept at 37° C. in a humidified CO2 atmosphere (5%). One day (24 h±2 h) prior to all experiments with LNCaP cells, the cultivated cells were harvested using a mixture of trypsin/ethylendiaminetetraacetate (0.05%/0.02%) and PBS and centrifuged. After centrifugation, the supernatant was disposed and the cell pellet resuspended in culture medium. Afterwards, cells were counted with a hemocytometer (Neubauer) and seeded in 24-well plates.
Subsequent to the removal of the culture medium, the cells were washed once with DMEM-F12-solution (500 μL, 5% BSA) and left to equilibrate for at least 15 min at 37° C. in DMEM-F12-solution (200 μL, 5% BSA). Afterwards, each well was treated with either DMEM-F12-solution (25 μL, 5% BSA) or 2-PMPA-solution (25 μL, 100 μm) for blockade. […] The experiment was terminated by placing the 24-well plate on ice for 3 min and the consecutive removal of the medium. Each well was rinsed with HBSS (250 μL) and the fractions from these first two steps combined, representing the amount of free radioligand. Removal of surface bound activity was accomplished by incubation of the cells with ice-cold 2-PMPA-solution (250 μL, 10 μm in PBS) for 5 min and subsequent rinsing with ice-cold PBS (250 μL). The internalized activity was determined through incubation of the cells in NaOH (250 μL, 1.0 m) and the combination with the fraction of the subsequent washing step with again NaOH (250 μL, 1.0 m). Each experiment (control and blockade) was performed in triplicate for each time point. Free, surface bound and internalized activity was quantified in a γ-counter.

[2] = Lipophilicity, logP in n-octanol/PBS of radiolabeled PSMA inhibitors; assay type: physicochemical; settings: pH 7.4; distribution coefficient in n-octanol/PBS, radiolabeled inhibitor; mean ± SD (n = 6); read-out: logP
Description: The radiolabeled PSMA inhibitor (0.5 to 1.0 MBq) dissolved in PBS (500 μL, pH=7.4), was added to n-octanol (500 μL) in a reaction vial (1.5 mL), which was rigorously vortexed for 3 min (n=6). For quantitative phase separation, the mixture was centrifuged at 6,000 g for 5 min (Biofuge 15, Heraus Sepatech, Osterode, Germany). The activity from samples of each phase (100 μL) were measured in a γ-counter to obtain the log P(o/w) value.

[3] = test system: LNCaP cells; assay: Externalization kinetics / cell retention in LNCaP cells; assay type: cell-based; settings: 60 min incubation, ^177Lu-labeled
Description: FIG. 2: Externalization kinetics of selected ^177Lu-labeled PSMA inhibitors from LNCaP cells. […] Then, the supernatant was removed and once washed with DMEM-solution (5% BSA, 37° C.). Afterwards, either A) only DMEM-solution (5% BSA) or B) blockade DMEM-solution (5% BSA, 10 μm 2-PMPA) were added for replacement. The total cellular internalized activity at t=0 min was corrected for non-specific binding (10 μm 2-PMPA) and normalized to 100%. All data are expressed as mean±SD (n=3).
Externalization kinetics of the radiolabeled PSMA inhibitors were determined using LNCaP cells, which were similarly prepared as described for the internalization assay. After an initial cell-washing step with DMEM-F12-solution (5% BSA), the cells were left to recondition for at least 15 min at 37° C. Subsequently, the LNCaP cells were incubated with the respective radiolabeled peptide (25 μL, 10.0 nm) at 37° C. for 60 min in a total volume of 250 μL in each well. After 60 min, the supernatant with the unbound free fraction was removed and measured in a γ-counter for the calculation of total added radioactivity. An acid wash step was avoided to warrant enzyme integrity during the following externalization and recycling study. To determine the recycling rate, fresh DMEM-F12-solution (250 μL, 5% BSA) was given to the cells to allow re-internalization. In contrast, re-internalization was inhibited by addition of DMEM-F12-solution containing 2-PMPA (225 μL DMEM-F12 (5% BSA) and 25 μL of 100 μm 2-PMPA-solution (PBS)). The cells were then incubated for 0, 20, 40 and 60 min at 37° C. Consequently, the supernatant was removed and the cells were washed with ice-cold HBSS (250 μL). The combination of the supernatant and the volume of the concomitant washing step with HBSS (200 μL) account for externalized radioligand at the investigated time point. Further, the cells were then washed with ice-cold 2-PMPA HBSS solution (250 μL, 10 μm) twice, combined and thus represented the fraction of membrane-bound radioligand. The determination of the internalized fraction was achieved by lysis as described for the internalization assay with NaOH (250 μL, 1.0 m). The activities of free, externalized, membrane-bound and internalized radioligand were quantified in a γ-counter.

[4] = test system: LNCaP-tumor xenograft; assay: Biodistribution in LNCaP-tumor xenograft bearing CB-17 SCID mice; assay type: in vivo; settings: ^177Lu-labeled, n = 4
Description: All animal experiments were carried out in accordance with the general animal welfare regulations in Germany (Deutsches Tierschutzgesetz, approval #55.2-1-54-2532-71-13). For the tumor model, LNCaP cells (approx. 10^7 cells) were suspended in serum-free DMEM-F12 medium and Matrigel (1/1; v/v) (BD Biosciences, Germany) and inoculated onto the right shoulder of male, 6 to 8 weeks old CB-17 SCID mice (Charles River Laboratories, Sulzfeld, Germany). Animals were used after the tumor size reached 4 to 8 mm in diameter for experiments.

[5] = 1 h p.i., listed as [^177Lu]PSMA I&T

logP [2]: -4.12 ± 0.11 | adrenal gland ([4]; 1 h p.i.): 6.25 ± 2.59 % ID/g | blood ([4]; 1 h p.i.): 0.37 ± 0.10 % ID/g | bone ([4]; 1 h p.i.): 0.14 ± 0.04 % ID/g | brain ([4]; 1 h p.i.): 0.03 ± 0.01 % ID/g | heart ([4]; 1 h p.i.): 0.58 ± 0.15 % ID/g | intestine ([4]; 1 h p.i.): 0.59 ± 0.50 % ID/g | liver ([4]; 1 h p.i.): 0.37 ± 0.10 % ID/g | lung ([4]; 1 h p.i.): 1.32 ± 0.45 % ID/g | muscle ([4]; 1 h p.i.): 0.18 ± 0.07 % ID/g | pancreas ([4]; 1 h p.i.): 1.30 ± 1.39 % ID/g | spleen ([4]; 1 h p.i.): 13.8 ± 4.59 % ID/g | stomach ([4]; 1 h p.i.): 0.29 ± 0.06 % ID/g | tumor [4, 5]: 4.7±1.0 % ID/g and 4.69±0.95 % ID/g | adrenal g. ([4]; 24 h p.i.): 1.06 ± 0.24 % ID/g | blood ([4]; 24 h p.i.): 0.012 ± 0.01 % ID/g | bone ([4]; 24 h p.i.): 0.01 ± 0.01 % ID/g | brain ([4]; 24 h p.i.): 0.02 ± 0.01 % ID/g | heart ([4]; 24 h p.i.): 0.05 ± 0.03 % ID/g | intestine ([4]; 24 h p.i.): 0.12 ± 0.06 % ID/g | liver ([4]; 24 h p.i.): 0.05 ± 0.01 % ID/g | lung ([4]; 24 h p.i.): 0.16 ± 0.03 % ID/g | muscle ([4]; 24 h p.i.): 0.01 ± 0.01 % ID/g | pancreas ([4]; 24 h p.i.): 0.05 ± 0.02 % ID/g | spleen ([4]; 24 h p.i.): 1.94 ± 1.01 % ID/g | stomach ([4]; 24 h p.i.): 0.05 ± 0.02 % ID/g | tumor ([4]; 24 h p.i., listed as [^177Lu]PSMA I&T): 4.06±1.12 % ID/g
Structure (SMILES): O=C(O)CC[C@H](NC(=O)N[C@@H](CCCCNC(=O)CCCCCCC(=O)NCCCC[C@@H](NC(=O)[C@@H](Cc1ccccc1)NC(=O)[C@@H](Cc1ccc(O)c(I)c1)NC(=O)CCC(C(=O)O)N1CCN(CC(=O)O)CCN(CC(=O)O)CCN(CC(=O)O)CC1)C(=O)O)C(=O)O)C(=O)O (stereo partly shown) [PSMA I&T, DOTAGA-y(3-I)fk(Sub-KuE), reference compound]
Internalization ([1]; listed as [^177Lu]PSMA I&T): 75.5±1.6% | Internalization ([1]; listed as [^nat/177Lu]PSMA I&T): 75.5 ± 1.6% | in vitro tumor cell retention [3]: 62.8±0.4% | kidney [4, 5]: 128.9±10.7 % ID/g and 128.90 ± 10.74 % ID/g

From patent US11497819B2, “PSMA ligands for imaging and endoradiotherapy” (priority 2017, dated 2022)
